Like-named read-outs stand apart in the source and are kept apart here.
How the values were obtained:
[1] = system: Key Broadleaf Weed and Crop Species; assay: Post-Emergent Test II: postemergent herbicidal activity, visual rating after 14 d (Table 7); type: in vivo; details: post-emergence, 336 h; for pest or weed control at 35 g/ha: 35 g ai/ha; for pest or weed control at 70 g/ha: 70 g ai/ha; for pest or weed control at 140 g/ha: 140 g ai/ha
Outline: (§1)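 Post-emergence foliar spray, 187 L/ha, first/second true leaf stage plants in potting mix (pH 6.0-6.8). Rates: top rate and 2-fold serial dilutions to 1/16×. Solvent-blank controls. Readout: visual % kill at 14 d.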

[2] = system: Key Grass and Sedge Weeds as well as Grass Crops; assay: Post-Emergent Test II: postemergent herbicidal activity, visual rating after 14 d (Table 8); type: in vivo; details: post-emergence, 336 h; for pest or weed control at 35 g/ha: 35 g ai/ha; for pest or weed control at 70 g/ha: 70 g ai/ha; for pest or weed control at 140 g/ha: 140 g ai/ha
Outline: as §1

[3] = lambsquarters (Chenopodium album), read-out: Visual Growth Reduction (%) 14 Days After Application CHEAL
[4] = oilseed rape, canola (Brassica napus), read-out: Visual Growth Reduction (%) 14 Days After Application BRSNN
[5] = redroot pigweed (Amaranthus retroflexus), read-out: Visual Growth Reduction (%) 14 Days After Application AMARE
[6] = sunflower (Helianthus annuus), read-out: Visual Growth Reduction (%) 14 Days After Application HELAN
[7] = velvetleaf (Abutilon theophrasti), read-out: Visual Growth Reduction (%) 14 Days After Application ABUTH
[8] = wild poinsettia (Euphorbia heterophylla), read-out: Visual Growth Reduction (%) 14 Days After Application EPHHL
[9] = barnyardgrass (Echinochloa crus-galli), read-out: Visual Growth Reduction (%) 14 Days After Application ECHCG
[10] = giant foxtail (Setaria faberi), read-out: Visual Growth Reduction (%) 14 Days After Application SETFA
[11] = maize, corn (Zea mays), read-out: Visual Growth Reduction (%) 14 Days After Application ZEAMX
[12] = rice (Oryza sativa), read-out: Visual Growth Reduction (%) 14 Days After Application ORYSA
[13] = wheat, spring (Triticum aestivum), read-out: Visual Growth Reduction (%) 14 Days After Application TRZAS
[14] = yellow nutsedge (Cyperus esculentus), read-out: Visual Growth Reduction (%) 14 Days After Application CYPES

Row | SMILES | pest or weed control at 35 g/ha [1, 3] | pest or weed control at 70 g/ha [1, 3] | pest or weed control at 140 g/ha [1, 3] | pest or weed control at 35 g/ha [1, 4] | pest or weed control at 70 g/ha [1, 4] | pest or weed control at 140 g/ha [1, 4] | pest or weed control at 35 g/ha [1, 5] | pest or weed control at 70 g/ha [1, 5] | pest or weed control at 140 g/ha [1, 5] | pest or weed control at 35 g/ha [1, 6] | pest or weed control at 70 g/ha [1, 6] | pest or weed control at 140 g/ha [1, 6] | pest or weed control at 35 g/ha [1, 7] | pest or weed control at 70 g/ha [1, 7] | pest or weed control at 140 g/ha [1, 7] | pest or weed control at 35 g/ha [1, 8] | pest or weed control at 70 g/ha [1, 8] | pest or weed control at 140 g/ha [1, 8] | pest or weed control at 35 g/ha [2, 9] | pest or weed control at 70 g/ha [2, 9] | other results
1 | COC(=O)c1nc(-c2ccc3c(c2)OC(F)(F)O3)nc(N)c1Cl [Compound 60] | 60 to 74% | 75 to 84% | 85 to 94% | 45 to 59% | 60 to 74% | 60 to 74% | 0 to 29% | 30 to 44% | 45 to 59% | 75 to 84% | 75 to 84% | 75 to 84% | 30 to 44% | 60 to 74% | 75 to 84% | 75 to 84% | 75 to 84% | 85 to 94% | 60 to 74% | 75 to 84% | pest or weed control at 140 g/ha [2, 9]: 85 to 94%; pest or weed control at 35 g/ha [2, 10]: 30 to 44%; pest or weed control at 70 g/ha [2, 10]: 60 to 74%; pest or weed control at 140 g/ha [2, 10]: 75 to 84%; pest or weed control at 35 g/ha [2, 11]: 60 to 74%; pest or weed control at 70 g/ha [2, 11]: 75 to 84%; pest or weed control at 140 g/ha [2, 11]: 85 to 94%; pest or weed control at 35 g/ha [2, 12]: 0 to 29%; pest or weed control at 70 g/ha [2, 12]: 0 to 29%; pest or weed control at 140 g/ha [2, 12]: 0 to 29%; pest or weed control at 35 g/ha [2, 13]: 45 to 59%; pest or weed control at 70 g/ha [2, 13]: 60 to 74%; pest or weed control at 140 g/ha [2, 13]: 60 to 74%; pest or weed control at 35 g/ha [2, 14]: 75 to 84%; pest or weed control at 70 g/ha [2, 14]: 85 to 94%; pest or weed control at 140 g/ha [2, 14]: 85 to 94%
2 | Cc1c(-c2ccc3c(c2)OC(F)(F)O3)nc(C(=O)O)c(Cl)c1N [Compound 52] | 0 to 29% | 0 to 29% | 0 to 29% | 0 to 29% | 0 to 29% | 0 to 29% | 0 to 29% | 0 to 29% | 0 to 29% | 85 to 94% | 95 to 100% | 95 to 100% | 0 to 29% | 0 to 29% | 0 to 29% | 0 to 29% | 0 to 29% | 0 to 29% | 45 to 59% | 60 to 74% | pest or weed control at 140 g/ha [2, 9]: 75 to 84%; pest or weed control at 35 g/ha [2, 10]: 0 to 29%; pest or weed control at 70 g/ha [2, 10]: 0 to 29%; pest or weed control at 140 g/ha [2, 10]: 45 to 59%; pest or weed control at 35 g/ha [2, 11]: 60 to 74%; pest or weed control at 70 g/ha [2, 11]: 60 to 74%; pest or weed control at 140 g/ha [2, 11]: 60 to 74%; pest or weed control at 35 g/ha [2, 12]: 0 to 29%; pest or weed control at 70 g/ha [2, 12]: 0 to 29%; pest or weed control at 140 g/ha [2, 12]: 0 to 29%; pest or weed control at 35 g/ha [2, 13]: 0 to 29%; pest or weed control at 70 g/ha [2, 13]: 30 to 44%; pest or weed control at 140 g/ha [2, 13]: 30 to 44%; pest or weed control at 35 g/ha [2, 14]: 0 to 29%; pest or weed control at 70 g/ha [2, 14]: 0 to 29%; pest or weed control at 140 g/ha [2, 14]: 0 to 29%
